Assay results: PubChem BioAssay AID1582
Results filed as inconclusive are left out.

Each compound was assayed on S. cerevisiae PHO84-LacZ reporter, HDAC inhibition (assay: HDAC inhibitors via yeast reporter, S. cerevisiae, PHO84-LacZ (AID 1582)).

**Q.** How did the EC50 turn out when `COc1cc(C)c2c(=O)cc(-c3ccccc3)oc2c1` was run?
**A.** 60 µM

**Q.** Which EC50 does the source give for `CN(Cc1cnc2nc(N)nc(N)c2n1)c1ccc(C(=O)N[C@@H](CCC(=O)O)C(=O)O)cc1` here?
**A.** 78 µM

**Q.** How did the EC50 turn out when `NCCCCN` was run?
**A.** 125 µM

**Q.** With `c1ccc2[nH]c(-c3cscn3)nc2c1` as the compound, how does the EC50 read?
**A.** 148 µM

**Q.** `CC(C(=O)O)c1ccc(N2Cc3ccccc3C2=O)cc1` (configuration not stated) was tested. Which EC50 did it give?
**A.** 50 µM

**Q.** With `CCC(C)[C@H]1O[C@]2(C=C[C@@H]1C)C[C@@H]1C[C@@H](C/C=C(\C)[C@@H](OC3C[C@H](OC)C(O[C@H]4C[C@H](OC)[C@@H](O)[C@H](C)O4)[C@H](C)O3)[C@@H](C)/C=C/C=C3\CO[C@@H]4[C@H](O)C(C)=C[C@@H](C(=O)O1)[C@]34O)O2` (some centres not stated) as the compound, how does the EC50 read?
**A.** 66 µM

**Q.** With `N#Cc1ccc2c(c1)N(CCCN1CCC(O)CC1)c1ccccc1S2` as the compound, how does the EC50 read?
**A.** 148 µM
